In patent US10851069B2, “Compositions of crystallized hydrophobic compounds and methods of making and using same” (Massachusetts Institute of Technology, priority 2016, dated 2020):

Experiments:
[1] = In vitro drug release from alginate capsules loaded with crystalline or amorphous formulations; format: physicochemical
Procedure: Release study was carried out in 3 different media, a normal saline-Isopropyl alcohol (10%) mixture, a phosphate buffer (pH 7.4), or for accelerated condition with phosphate buffered saline (pH 7.4) either with 0.1% w/v or 03% w/v SDS. Release study at NS+10% IPA was carried out in 2 ml medium at 37° C. Sampling was carried out by replacement of 1.5 ml of release medium by total replacement of release medium with fresh medium. […] For release in accelerated condition (PBS+SDS), the same time points were followed while 20 μl of drug loaded capsules were incubated in 2 ml release medium to achieve sink conditions. Drug concentration in samples was measured by reverse phase HPLC on C-18 column with a mobile phase or using UV calibrated system. An isocratic mode was set at a flow rate of 0.5-2 ml/min and a different wave-length of nm and 20-50 μl of samples was injected into an HPLC system (Waters, LC-Module-I) or UV analyzed. Calibration curves were prepared in concentration range of 0.05-10 μg/ml. Using prepared calibration curves, drugs concentration in different release samples were calculated.

C57BL/6 mice [2] = assay: Crystalline drug-loaded alginate capsules, long-term IP/SC implantation, prevention of fibrosis; format: in vivo; details: crystalline form in alginate capsules, retrieved after 1, 3 and 6 months from IP space
Excerpt: Lead compounds identified by screening the amorphous formulations (e.g., compounds of Formulae I-X, particularly LY215799, Dx, Curcumin, GW2580, QNZ and Ki20227) were studied for long-term release and prevention of fibrosis following encapsulation in crystalline form and implantation into the intraperitoneal (IP) space of C57BL/6 mice for long term testing. […] Drug extraction analysis by HPLC also determined that notable percentages (e.g., more than 50%) of the loaded drug remained within the retrieved capsules (FIG. 22D), particularly in the subcutaneous implanted samples. […] In contrast, capsules retrieved from the IP space 6 months post-implantation were identified with only 2-40% of the loaded drug remaining within the retrieved capsules.
All animal protocols were approved by the MIT Committee on Animal Care, and all surgical procedures and post-operative care was supervised by MIT Division of Comparative Medicine veterinary staff. Immune-competent male non-diabetic or STZ-induced diabetic C57BL/6 mice (Jackson Laboratory, Bar Harbor, Me.) were anesthetized with 3% isoflurane in oxygen and had their abdomens shaved and sterilized using betadine and isopropanol. Preoperatively, all mice also received a 0.05 mg/kg dose of buprenorphine subcutaneously as a pre-surgical analgesic, along with 0.3 mL of 0.9% saline subcutaneously to prevent dehydration. A […] incision was made along the midline of the abdomen and the peritoneal lining was exposed using blunt dissection. The peritoneal wall was then grasped with forceps and a 0.5-1 mm incision was made along the linea alba. A desired volume of spheres (all materials without islets, as well as SLG20 spheres encapsulating rat islets) were then loaded into a sterile pipette and implanted into the peritoneal cavity through the incision. The incision was then closed using 5-0 taper-tipped polydioxanone (PDS II) absorbable sutures. The skin was then closed over the incision using a wound clip and tissue glue.
At desired time points post-implantation or transplantation (with encapsulated islets), as specified in figures, mice were euthanized by CO2 administration, followed by cervical dislocation. In certain instances, 5 ml of ice cold PBS was first injected in order perform an intraperitoneal lavage to rinse out and collect free-floating intraperitoneal immune cells. An incision was then made using the forceps and scissors along the abdomen skin and peritoneal wall, and intraperitoneal lavage volumes were pipetted out into fresh 15 ml falcon tubes (each prepared with 5 ml of RPMI cell culture media). Next, a wash bottle tip was inserted into the abdominal cavity. KREBS buffer was then used to wash out all material spheres from the abdomen and into petri dishes for collection. After ensuring all the spheres were washed out or manually retrieved (if fibrosed directly to intraperitoneal tissues), they were transferred into 50 mL conical tubes for downstream processing and imaging. After intraperitoneal lavage and sphere retrieval, remaining fibrosed intraperitoneal tissues were also excised for downstream FACS and expression analyses.
For phase contrast imaging, retrieved materials were gently washed using Krebs buffer and transferred into 35 mm petri dishes for phase contrast microscopy using an Evos X1 microscope (Advanced Microscopy Group).
Immunofluorescence imaging was used to determine immune populations attached to spheres. […]

C57BL/6 mice [3] = assay: Anti-fibrotic screening of amorphous drug formulations in 500 μm alginate capsules, 2-week intraperitoneal implantation; format: in vivo; details: conclusion; alginate hydrogel, ceramic, glass, PDMS and polystyrene beads
Excerpt: For screening of anti-fibrotic drug activity, amorphous drug formulations were encapsulated inside 500 μm alginate capsules. Broad-spectrum anti-inflammatory agents curcumin, dexamethasone, and rapamycin have been used for preventing fibrosis of various biomaterials, such as polymer PLGA and hydrogel alginate. A panel of lead drug candidates (e.g., compounds of Formulae I-X) including the traditional broad-spectrum anti-inflammatories as well as agents targeted to essential macrophage biology pathways (e.g., TNFα, NFκB, p110δ/PI3K, TGFβ, and CSF1R) were selected. […] SLG20 alginate hydrogel spheres with these lead drug candidates were prepared as amorphous formulations to investigate the effect of macrophage immunomodulation on foreign body response. Drugs were encapsulated in amorphous form prepared by first dissolving in an organic solvent (e.g., vehicle in FIGS. 7, 9) then by mixing with alginate aqueous solution. Efficacy in preventing fibrosis was assessed in C57BL/6 mice at 2-weeks post implantation into the intraperitoneal (IP) cavity. Drug-containing spheres (500 μl/animal) were then implanted into the intraperitoneal space of C57BL/6 mice for 14 days. After this period, spheres were harvested and studied for cellular deposition and fibrosis.
All animal protocols were approved by the MIT Committee on Animal Care, and all surgical procedures and post-operative care was supervised by MIT Division of Comparative Medicine veterinary staff. Immune-competent male non-diabetic or STZ-induced diabetic C57BL/6 mice (Jackson Laboratory, Bar Harbor, Me.) were anesthetized with 3% isoflurane in oxygen and had their abdomens shaved and sterilized using betadine and isopropanol. Preoperatively, all mice also received a 0.05 mg/kg dose of buprenorphine subcutaneously as a pre-surgical analgesic, along with 0.3 mL of 0.9% saline subcutaneously to prevent dehydration. A […] incision was made along the midline of the abdomen and the peritoneal lining was exposed using blunt dissection. […]

[4] = tested on: inflammatory macrophage markers Sphk1, TNFα, Arg1, IL1; assay: NanoString multiplexed gene expression analysis of retrieved capsules; format: in vivo, C57BL/6 mice; details: amorphous drug-loaded capsules, 2 weeks IP; CSF1R-targeting agents compared
Procedure: RNAs for mock-implanted (mock) controls, or for various drug-loaded 0.5 mm diameter alginate sphere-bearing mice (n=4/group) were isolated from tissue samples taken at various time points after implantation, as described. Respective RNAs were quantified, diluted to the appropriate concentration (100 ng/μl), and then 500 ng of each sample was processed according to NanoString manufacturer protocols for expression analysis via our customized multiplexed gene mouse macrophage subtyping panel. RNA levels (absolute copy numbers) were obtained following nCounter (NanoString Technologies Inc., Seattle, Wash.) quantification, and group samples were analyzed using nSolver analysis software (NanoString Technologies Inc., Seattle, Wash.).

SMILES: COc1cc(/C=C/C(=O)CC(=O)/C=C/c2ccc(O)c(OC)c2)ccc1O [Curcumin, (1E,6E)-1,7-bis (4-hydroxy-3-methoxyphenyl)-1,6-heptadiene-3,5-dione]
- drug release profile ([1]; amorphous curcumin encapsulated in alginate, in vitro up to 2 months): quicker drug release
- drug release profile ([1]; crystalline curcumin encapsulated in alginate, in vitro up to 2 months): releases more slowly initially, but can be maintained for much longer periods of time
- duration of long-term release (slow surface erosion) ([1]; crystalline curcumin loaded into alginate spheres): at least 2 months
- drug release profile ([1]; mixed crystalline:amorphous 3:1 curcumin in alginate): both quick and extended release
- fibrosis by phase contrast imaging and confocal microscopy (C57BL/6 mice [2]): fibrosis free

SMILES: COc1cc(Oc2ccnc3cc(OC)c(OC)cc23)ccc1NC(=O)NC(C)c1nccs1 (centres unmarked) [Ki20227, N-[4-[(6,7-Dimethoxy-4-quinolinyl)oxy]-2-methoxyphenyl]-N′-[1-(2-thiazolyl)ethyl]urea]
- efficacy in inhibiting fibrosis of implanted biomaterial (C57BL/6 mice [3]): demonstrated efficacy in inhibiting fibrosis
- fibrosis by phase contrast imaging and confocal microscopy (C57BL/6 mice [2]): fibrosis free

SMILES: Cc1cccc(-c2nn3c(c2-c2ccnc4ccc(C(N)=O)cc24)CCC3)n1 [LY215799, 4-(2-(6-methylpyridin-2-yl)-5,6-dihydro-4H-pyrrolo[1,2-b]pyrazol-3-yl)quinoline-6-carboxamide]
- fibrosis by phase contrast imaging and confocal microscopy (C57BL/6 mice [2]): fibrosis free

SMILES: Nc1ccc2ncnc(NCCc3ccc(Oc4ccccc4)cc3)c2c1 [QNZ, N4-(4-phenoxyphenethyl)quinazoline-4,6-diamine]
- fibrosis by phase contrast imaging and confocal microscopy (C57BL/6 mice [2]): fibrosis free

SMILES: Cc1ccc(Nc2c(C(N)=O)cnc3cc(-c4ccc(S(C)(=O)=O)cc4)ccc23)cc1C [cFMS receptor inhibitor III, 4-(3,4-Dimethylanilino)-7-(4-(methylsulfonyl)phenyl)quinoline-3-carboxamide]
- efficacy in inhibiting fibrosis of implanted biomaterial (C57BL/6 mice [3]): demonstrated efficacy in inhibiting fibrosis
- gene expression responses [4]: almost identical gene expression responses
